From patent publication US7667052B2 (Eisai R&D Management Co., Ltd., priority 2003, dated 2010)

Tested on: transcription from VEGF promoter
Experiment: VEGF transcription-suppressing activity, VEGF-PLAP reporter in U251/1-8 cell
Format: cell-based
Conditions: Homo sapiens, U-251; U251/1-8 cell, PLAP activity, low oxygen 18 hours; read-out: IC50 values of VEGF transcription-suppressing activity (range given)
Text: In order to prepare reporter system reflecting transcription from VEGF promoter, VEGF promoter sequence was cloned, and inserted in secretory alkali phosphatase (PLAP) vector to construct reporter vector.
In order to obtain the promoter region of human VEGF, VEGF genome was cloned from phage library. PCR primers having the sequences described in Sequence Numbers 1 and 2 were designed based on VEGF cDNA (GenBank accession number: X62568) and a fragment having about 340 bp was obtained by carrying out PCR. Human genome phage library (Human genomic library, Clontech Co.) was screened using this as a probe to obtain pUC18-VEGFA containing about 5.4 kb of VEGF 5′ flanking region. The pUC18-VEGFA was cleaved by KpnI/NheI, VEGF promoter region of about 2.3 kb obtained was inserted in the multi cloning site KpnI/NheI of secretory alkali phosphatase (PLAP) vector (Goto et al, Mol. Pharmacol., 49, 860-873, 1996), and thus, VEGF-PLAP vector was constructed.
The above-mentioned VEGF-PLAP vector was introduced in the U251 cell cultured in the DULBECCO-modified eagle medium (DMEM; manufactured by SIGMA Co., Ltd.) containing 10% fetal calf serum, and cultured in the presence of 1 mg/ml G418 (Merck Co.) to establish G418 resistant stable clone (U251/1-8 cell).
It was confirmed that U251/1-8 cell secreted PLAP under low oxygen (2% O2 incubator) in the same manner as in the report (Cell. Mol. Biol. Res. 40, 35-39, 1994) and was a reporter system reflecting the transcription from VEGF promoter. The screening of the compound suppressing VEGF production which was induced by low oxygen stimulation was carried out below using the clone.
In order to remove the influence of alkaline phosphates in serum, U251/1-8 cell was rinsed twice with the adequate amount of PBS (Phosphate buffered saline), diluted in the DMEM medium containing 10% of serum in which alkaline phosphates was inactivated by the treatment of 60° C. for 20 min., and dispensed in 96-well plates by 4×10^4 cells/180 μl.
After culturing at 37° C. overnight in a CO2 incubator (5% CO2), 20 μL of the above-mentioned incubation solution containing the test compound diluted with 3-fold succession was added, and then they were incubated in a low oxygen ([…]) incubator for 18 hours. With respect to the PLAP activity in the culture supernatants, 10 μl of the supernatants was added to 50 μl of 0.28 M Na2CO3—NaHCO3 buffer solution (pH 10.0, 8.0 mM MgSO4), and finally 50 μl of alkaline phosphatase substrate (LUMISTEIN, Genomescience Co.) was added. After reacting for one hour, the alkaline phosphatase activity of the PLAP was measured by detecting the chemical luminescence by a micro plate reader (Perkin-Elmer Co.).
The PLAP activity under usual oxygen was set as 0%, the PLAP activity of cell which was treated under low oxygen was set as 100%, and the concentration suppressing the PLAP activity by 50% was set as the IC50 value of PLAP.

SMILES	IC50
CCC(OC(=O)CO)C(C)C1OC1CC(C)/C=C/C=C(\C)C1OC(=O)CC(O)CCC(C)(O)C(OC(C)=O)/C=C/C1C (stereo not shown) [B27]	0.5 to 100 nM
CCC(OC(=O)CN(C)C)C(C)C1OC1CC(C)/C=C/C=C(\C)C1OC(=O)CC(O)CCC(C)(O)C(OC(C)=O)/C=C/C1C (stereo not shown) [B28, (8E,12E,14E)-7-Acetoxy-3,6-dihydroxy-6,10,12,16,20-pentamethyl-21-dimethylaminoacetoxy-18,19-epoxytricosa-8,12,14-trien-11-olide]	0.5 to 100 nM
CCC(OC(=O)c1cccnc1)C(C)C1OC1CC(C)/C=C/C=C(\C)C1OC(=O)CC(O)CCC(C)(O)C(OC(C)=O)/C=C/C1C (stereo not shown) [B29, (8E,12E,14E)-7-Acetoxy-3-6-dihydroxy-6,10,12,16,20-pentamethyl-21-nicotinoxy-18,19-epoxytricosa-8,12,14-trien-11-olide]	0.5 to 100 nM
CCC(O)C(C)C1OC1CC(C)/C=C/C=C(\C)C1OC(=O)CC(OC(=O)c2ccccc2)CCC(C)(O)C(OC(C)=O)/C=C/C1C (stereo not shown) [B30-2, (8E,12E,14E)-7-acetoxy-3-benzoloxy-6,21-dihydroxy-6,10,12,16,20-pentamethyl-18,19-epoxytricosa-8,12,14-trien-11-olide]	0.5 to 100 nM
CCC(OC(=O)c1ccccc1)C(C)C1OC1CC(C)/C=C/C=C(\C)C1OC(=O)CC(O)CCC(C)(O)C(OC(C)=O)/C=C/C1C (stereo not shown) [B30-3, (8E,12E,14E)-7-acetoxy-21-benzoloxy-3,6-dihydroxy-6,10,12,16,20-pentamethyl-18,19-epoxytricosa-8,12,14-trien-11-olide]	0.5 to 100 nM
CCC(OC(N)=O)C(C)C1OC1CC(C)/C=C/C=C(\C)C1OC(=O)CC(OC(N)=O)CCC(C)(O)C(OC(C)=O)/C=C/C1C (stereo not shown) [B33-1, (8E,12E,14E)-7-Acetoxy-3,21-dicarbamoyloxy-6-hydroxy-6,10,12,16,20-pentamethyl-18,19-epoxytricosa-8,12,14-trien-11-olide]	0.5 to 100 nM
CCC(O)C(C)C1OC1CC(C)/C=C/C=C(\C)C1OC(=O)CC(OC(N)=O)CCC(C)(O)C(OC(C)=O)/C=C/C1C (stereo not shown) [B35-1, (8E,12E,14E)-7-Acetoxy-3-carbamoyloxy-6,21-dihydroxy-6,10,12,16,20-pentamethyl-18,19-epoxytricosa-8,12,14-trien-11-olide]	0.5 to 100 nM
CCC(OC(N)=O)C(C)C1OC1CC(C)/C=C/C=C(\C)C1OC(=O)CC(O)CCC(C)(O)C(OC(C)=O)/C=C/C1C (stereo not shown) [B35-2, (8E,12E,14E)-7-acetoxy-21-carbamoyloxy-3,6-dihydroxy-6,10,12,16,20-pentamethyl-18,19-epoxytricosa-8,12,14-trien-11-olide]	0.5 to 100 nM
CCC(OC(=O)N1CCN(C)CC1)C(C)C1OC1CC(C)/C=C/C=C(\C)C1OC(=O)CC(O)CCC(C)(O)C(OC(C)=O)/C=C/C1C (stereo not shown) [B36-2, (8E,12E,14E)-7-acetoxy-21-((4-methylpiperazin-1-yl)carbonyl)oxy-3,6-dihydroxy-6,10,12,16,20-pentamethyl-18,19-epoxytricosa-8,12,14-trien-11-olide]	0.5 to 100 nM
CCC(O)C(C)C1OC1CC(C)/C=C/C=C(\C)C1OC(=O)CC(OC(=O)N2CCC(N3CCCCC3)CC2)CCC(C)(O)C(OC(C)=O)/C=C/C1C (stereo not shown) [B37-1]	0.5 to 100 nM
CCC(O)C(C)C1OC1CC(C)/C=C/C=C(\C)C1OC(=O)CC(O)CCC(C)(O)C(OC(=O)CCl)/C=C/C1C (stereo not shown) [B39, (8E,12E,14E)-7-Chloroacetoxy-3,6,21-trihydroxy-6,10,12,16,20-pentamethyl-18,19-epoxytricosa-8,12,14-trien-11-olide]	0.5 to 100 nM
CCC(O)C(C)C1OC1CC(C)/C=C/C=C(\C)C1OC(=O)CC(O)CCC(C)(O)C(OC(=O)CN2CCOCC2)/C=C/C1C (stereo not shown) [B40, (8E,12E,14E)-3,6,21-Trihydroxy-6,10,12,16,20-pentamethyl-7-(morpholin-4-yl)acetoxy-18,19-epoxytricosa-8,12,14-trien-11-olide]	0.5 to 100 nM
CCC(O)C(C)C1OC1CC(C)/C=C/C=C(\C)C1OC(=O)CC(O)CCC(C)(O)C(OC(=O)c2ccccc2)/C=C/C1C (stereo not shown) [B41, (8E,12E,14E)-7-Benzoyloxy-3,6,21-trihydroxy-6,10,12,16,20-pentamethyl-18,19-epoxytricosa-8,12,14-trien-11-olide]	0.5 to 100 nM
